The values that follow come from patent publication US20040219173A1, “METHOD FOR TREATING HIV” (priority 2000, published 2004).

Series [1] is described as follows: Complications from use of the NaCl tablets in the test subjects. It counts as in vivo, human. As to conditions: Example II, 12 subjects, 250 mg tablets. The method, then:
12 representative persons would be treated by the inventive method, but with a 250 mg tablet of solid NaCI (except certain other ingredients also are incorporated into the tablets, for a total of 250 mg, for test subject nos. 11 and 12, as further discussed below).

For series [2] the following is noted: cited from earlier work.

Like-named read-outs stand apart in the source and are kept apart here.

`[Cl-].[Na+]` [NaCI, sodium chloride]: the “complications from use of the tablets” value in series [1] is “No complications”. The saturation in water entry is “about 35.7 % by weight” in series [2] (0°C) and “about 32.6 % by weight” in series [2] (room temperature (72°F, 22.2°C)).
